The text below walks through data of US9846168B2, “Fluorescent metal ion indicators with large stokes shifts” (LIFE TECHNOLOGIES CORPORATION, priority 2004, dated 2017).

Series [1] is described as follows: Calcium binding: fluorescence titration in Ca++ buffers (0-39 μM), Kd calculated. As to conditions: fluorescence change on calcium binding. Here is the method:
(§1) In all cases, samples were dissolved in nanopure(np)-H2O at concentrations of approximately 1 mg/mL, except Compound 18 which was dissolved in 1:1 DMSO:npH2O. Non-quantitative aliquots of these solutions were added to approximately 3 mL of 39 μM Ca++ buffer, 100 mM KCl, 30 mM MOPS (pH7.2) (Compounds 5, 10, 13), Zero Ca++ buffer, 100 mM KCl, 30 mM MOPS (pH7.2) (Compound 18), or npH2O (Compound 21). Absorption spectra were obtained using a Perkin Elmer UV/Vis Spectrometer (Lambda 35 or 40). Fluorescence samples were prepared by pipetting aliquots of respective stock solutions to a series of disposable cuvettes containing 2 mL of Ca++ buffers from Calcium Calibration Buffer Kit #2 (Invitrogen cat.#3009) (0-39 μM). The final concentration of compound ranged from approximately 0.1-4 μM. Samples were excited at their wavelength of maximum absorption and spectra were obtained using a Perkin Elmer Luminescence Spectrometer (LS50B, LS55). Emission intensities were recorded at the respective maxima and Kd values calculated.

Series [2] can be described thus: Absorption and fluorescence emission spectra of calcium binding compounds. Format: physicochemical. As to conditions: for λem (nm): emission maximum, excited at wavelength of maximum absorption, Ca++ buffers 0-39 μM; for λex (nm): wavelength of maximum absorption, 39 μM Ca++ buffer, 100 mM KCl, 30 mM MOPS pH7.2 (Compounds 5, 10, 13), Zero Ca++ buffer (Compound 18), npH2O (Compound 21). As for the experimental part: as §1

Take `Cc1ccc(N(CC(=O)[O-])CC(=O)[O-])c(OCCOc2cc(CNC(=O)c3cc(=O)cc4oc5cc(N(C)C)ccc5nc3-4)ccc2N(CC(=O)[O-])CC(=O)[O-])c1.[Li+].[Li+].[Li+].[Li+]` [Compound 21]: the “ΔF = Fb/Fo” value in series [1] is listed as 11. Also, in series [2], the “λem (nm)” value came out at 641 nm and the “λex (nm)” value amounted to 612 nm.

Take `Cc1ccc(N(CC(=O)[O-])CC(=O)[O-])c(OCCOc2cc(CNS(=O)(=O)c3cccc4c(N(C)C)cccc34)ccc2N(CC(=O)[O-])CC(=O)[O-])c1.[K+].[K+].[K+].[K+]` [Compound 5]: the “ΔF = Fb/Fo” value in series [1] was 3. For the same compound, in series [2], the “λem (nm)” value turned out to be 549 nm and the “λex (nm)” value is 331 nm.

Consider `Cc1ccc(N(CC(=O)[O-])CC(=O)[O-])c(OCCOc2cc(CN3C(=O)c4cccc5c(N)ccc(c45)C3=O)ccc2N(CC(=O)[O-])CC(=O)[O-])c1.[K+].[K+].[K+].[K+]` [Compound 13], for which the “ΔF = Fb/Fo” value in series [1] was 12. In series [2], the “λem (nm)” value worked out at 550 nm and the “λex (nm)” value was 432 nm.

On to `Cc1ccc(N(CC(=O)[O-])CC(=O)[O-])c(OCCOc2cc(CNC(=O)c3c4oc5cc(O)ccc5nc-4ccc3=O)ccc2N(CC(=O)[O-])CC(=O)[O-])c1.[Li+].[Li+].[Li+].[Li+]` [Compound 18], for which, in series [1], the “ΔF = Fb/Fo” value is listed as 5. Also, in series [2], the “λem (nm)” value worked out at 589 nm and the “λex (nm)” value was determined as 550 nm.
